The test system of the experiment is MDA-MB-468 breast. As to the kind of experiment: NCI anticancer screen, dose series, 48 h.

This note sets out measurements from PubChem BioAssay (NCI).

Structures are written as SMILES.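 Grown in 96-well plates, cells were treated for 48 hours with each compound at five concentrations. Insufficient inhibition: endpoint recorded as highest concentration tested. GI50 marks 50% less growth. TGI denotes the concentration required for complete inhibition of growth.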 Bounds are passed on as bounds.

In the case of `CN1CCC[C@@H]1CCO[C@](C)(c1ccccc1)c1ccc(Cl)cc1`, the GI50 was 1.66 µM and the TGI was found to be 3.51 µM.
For `COc1ccc(/C=C2\CN(Cc3cn(CCCNc4ccnc5cc(Cl)ccc45)nn3)C/C(=C\c3ccc(OC)c(OC)c3)C2=O)cc1OC`, in that order: 0.772 µM and 2.49 µM.
Take `Cc1cccc2c(N=Nc3ccc(S(N)(=O)=O)cc3)c(O)[nH]c12`: the GI50 is above 25 µM and the TGI was above 25 µM.
As to `N#CC(=S)Nc1ccc(Cl)c(Cl)c1`, the GI50 was 6.1 µM and the TGI is 52.2 µM.
For `O=C1OCc2c1cc(F)cc2[N+](=O)[O-]`, in that order: above 100 µM and above 100 µM.
For `O=C1/C(=C\C(Cl)=C/c2ccc([N+](=O)[O-])cc2)SC(=S)N1CCc1ccc(O)cc1`, in that order: 0.405 µM and 1.74 µM.
Regarding `Cc1c2c(nn1C(=O)c1nn(-c3ccc(Cl)cc3)cc1O)-c1ccccc1CC2`, the GI50 was 0.25 µM and the TGI is above 58.2 µM.
For `O=C(O)c1ccc2c(c1Nc1ccccc1)C(=O)c1ccccc1C2=O`, in that order: 31.8 µM and above 100 µM.
The corresponding values for `CCN(CC)c1ccc2c(c1)Oc1nc(N)c(C#N)c(N)c1C2Sc1ccc(C)cc1` (configuration not stated) are 1.62 µM and 3.14 µM.
For `COc1ccc(N(CC(=O)NCCC[Te]c2ccccc2)C(=O)CCSC2=C(C)C(=O)c3ccccc3C2=O)cc1`, the GI50 was 1.67 µM and the TGI was determined as 3.39 µM.
The corresponding values for `COc1ccc(/C(C)=C(\c2ccc(Cl)cc2)c2ccc(OCCN3CCCC3)cc2)cc1F` are 3.35 µM and 7.18 µM.
For `CCCCCCCC/C=C/CCCCCCCC1=NC(C)(C)CN1C(C)C`, in that order: 1.31 µM and 2.7 µM.
For the compound `COc1ccc(-c2cnc3ccnn3c2-c2cc(OC)c(OC)c(OC)c2)cc1`, the GI50 is 2.64 µM and the TGI is above 100 µM.
For `O=C(O)C(CSC(c1ccccc1)(c1ccccc1)c1ccccc1)N=Cc1cccs1` (configuration not stated), in that order: 0.232 µM and 0.922 µM.
`CCN(CC)CCOc1ccc(/C(=C(\C)Cc2ccc(OC)cc2)c2ccc(OC(=O)NCc3ccccc3)cc2)cc1`: the GI50 is 1.9 µM and the TGI came out at 3.96 µM.
Consider `NC1=C(Cl)C(=O)c2ccc(S(N)(=O)=O)cc2C1=O`, for which the GI50 is 0.181 µM and the TGI was 0.486 µM.
The corresponding values for `CN(C)CCCN(c1nc(C(Cl)(Cl)Cl)ns1)c1nc(C(Cl)(Cl)Cl)ns1` are 1.66 µM and 3.11 µM.
The corresponding values for `c1cc(OCCN2CCCCCC2)ccc1CNc1ccc2nc(CCC3CCCCC3)[nH]c2c1` are 1.55 µM and 4.02 µM.
For `CCOC(=O)/C(=C/c1ccc([N+](=O)[O-])cc1)C(=O)c1ccccc1`, in that order: 2.31 µM and 4.6 µM.
Take `C=C1C(=O)O[C@H]2[C@H]1CC/C(Cn1cc(Cn3ccc4ccccc43)nn1)=C\CC[C@@]1(C)O[C@@H]21`: the GI50 is 0.717 µM and the TGI came to 2.48 µM.
As for `O=C(Nc1ccccc1)Nc1cccc(-n2cc(-c3ccncc3)c(-c3ccc(O)c(Cl)c3)n2)c1`, the GI50 was 3.22 µM and the TGI worked out at 12.2 µM.
With `O=C(Nc1n[nH]c2nc(-c3ccco3)ccc12)C1CC1`, the GI50 was above 25 µM and the TGI is above 25 µM.
`COc1ccc(-c2nn(-c3cccc(NC(=O)Nc4ccc(Cl)c(C(F)(F)F)c4)c3)cc2-c2ccncc2)cc1Cl`: the GI50 is 1.63 µM and the TGI is 6.78 µM.
The corresponding values for `COc1cc(/C=C2\CN(C)C/C(=C\c3cc(OC)c(OC)c(OC)c3)C2=O)cc(OC)c1OC` are 0.266 µM and 0.849 µM.
The corresponding values for `C=C1C(=O)O[C@H]2[C@H]1CC/C(COC(=O)CCCCCCCCC(=O)OC/C1=C/CC[C@@]3(C)O[C@H]3[C@H]3OC(=O)C(=C)[C@@H]3CC1)=C\CC[C@@]1(C)O[C@@H]21` are 2.27 µM and 5.15 µM.
The corresponding values for `COc1cc(/C=C/C(=O)c2ccc(Nc3ncnc4ccccc34)cc2)cc(OC)c1` are 2.2 µM and 10.7 µM.
As to `O=C1c2cc3c(cc2-c2c1c1ccc(Cl)cc1c(=O)n2C[C@H](O)[C@@H](O)[C@H](O)CO)OCO3`, the GI50 is 0.0189 µM and the TGI came out at 0.0459 µM.
For the compound `CCCc1cc2cc(-n3nc(C)c4c3CC(C)(C)CC4=O)cc(NC3CCC(O)CC3)c2c(=O)[nH]1` (configuration not stated), the GI50 is 0.0475 µM and the TGI is above 100 µM.
The corresponding values for `CN[C@]12CC3(C=CC(=O)C=C3)O[C@@]1(Cc1ccc(OC)cc1)N(C)C(=O)N2` are 1.25 µM and 3.5 µM.
As for `C/C(CC(=O)NNc1ccc([N+](=O)[O-])cc1)=N\Nc1ccc([N+](=O)[O-])cc1`, the GI50 is 28.1 µM and the TGI is above 100 µM.
Regarding `O=C1C(=O)c2ccccc2-c2ccccc21`, the GI50 is 1.7 µM and the TGI is 3.53 µM.
